These results are taken from patent US20260022143A1, “Cyclic Peptide Inhibitors of IL-23” (JANSSEN PHARMACEUTICA NV, priority 2022, published 2026).

Starred links: 1 amine or outer side, 2 acyl side, 3 side chain; linkers in the order of their positions; H or OH if unused. Positions of bridges follow the written chain, without caps; N, C: chain ends. Non-standard residues stand in square brackets, D forms with d. Residues, ends and D or L forms follow the SMILES beside them. *: point of attachment. Trp(7-(3-AcNH-Ph)) = CC(=O)Nc1cccc(-c2cccc3c(C[C@H](N)C(=O)O)c[nH]c23)c1; X33 = C[N+](C)(C)CCCCc1cn(-c2ccc(C[C@H](N[*:1])C(=O)[*:2])cc2)nn1; Me3N+(CH2)2O(CH2)2O(CH2)2CO = C[N+](C)(C)CCOCCOCCC(=O)*; Trp(7-Me) = Cc1cccc2c(C[C@H](N)C(=O)O)c[nH]c12; dLys(Me3) = C[N+](C)(C)CCCC[C@@H](N)C(=O)O; 2Nal = N[C@@H](Cc1ccc2ccccc2c1)C(=O)O; AEF = NCCOc1ccc(C[C@H](N)C(=O)O)cc1; 3Pal = N[C@@H](Cc1cccnc1)C(=O)O; Pen = CC(C)(S)[C@H](N)C(=O)O; Thp = NC1(C(=O)O)CCOCC1; X3 = C[N+](C)(C)CCCCC*; Sar = CNCC(=O)O

The data set can be described thus: Exposed Polar Surface Area (EPSA). The data set is classed as physicochemical. As to conditions: SFC on Chirex 3014 column; sample 1 mM DMSO stock; read-out: EPSA. In short, it runs like this:
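Polarity descriptor in Å² derived from retention time using 8 calibration standards re-run every 20 compounds. Duplicate injections of 1 mM DMSO stock; linear 5–60% modifier gradient (20 mM ammonium formate in MeOH) with CO2 at 4 mL/min, 35 °C, on a Chirex 3014 column.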
Consider `CC(=O)NCCCC[C@@H]1NC(=O)[C@H](Cc2c[nH]c3c(C)cccc23)NC(=O)[C@H]([C@@H](C)O)NC(=O)[C@H](CC(N)=O)NC(=O)[C@@H](NC(C)=O)C(C)(C)SSC(C)(C)[C@@H](C(=O)N[C@@H](Cc2ccc(-n3cc(CCCC[N+](C)(C)C)nn3)cc2)C(=O)N[C@@H](Cc2ccc3ccccc3c2)C(=O)NC2(C(=O)N[C@@H](CCC(=O)O)C(=O)N[C@@H](CC(N)=O)C(=O)N[C@@H](Cc3cccnc3)C(=O)N(C)CC(N)=O)CCOCC2)NC1=O` [compound 442] (Ac-[Pen]NT[Trp(7-Me)]K(Ac)[Pen][X33][2Nal][Thp]EN[3Pal][Sar]-NH2; disulfide 1-6 (inferred)), for which the EPSA is 169 A^2. Consider `CC(=O)NCCCC[C@@H]1NC(=O)[C@H](Cc2c[nH]c3c(-c4cccc(NC(C)=O)c4)cccc23)NC(=O)[C@H]([C@@H](C)O)NC(=O)[C@H](CC(N)=O)NC(=O)[C@@H](NC(=O)CCOCCOCC[N+](C)(C)C)C(C)(C)SSC(C)(C)[C@@H](C(=O)N[C@@H](Cc2ccc(OCCCCC[N+](C)(C)C)cc2)C(=O)N[C@@H](Cc2ccc3ccccc3c2)C(=O)NC2(C(=O)N[C@@H](CCC(=O)O)C(=O)N[C@@H](CC(N)=O)C(=O)N[C@@H](Cc3cccnc3)C(=O)N(C)CC(N)=O)CCOCC2)NC1=O` [compound 444, cPEG3aCO-Pen(3)-N-T-7(3NAcPh)W-K(Ac)-Pen(3)-TMAPF-2Nal-THP-E-N-3Pya-Sar-CONH2] ({Me3N+(CH2)2O(CH2)2O(CH2)2CO}-[Pen]NT[Trp(7-(3-AcNH-Ph))]K(Ac)[Pen]Y(X3)[2Nal][Thp]EN[3Pal][Sar]-NH2; disulfide 1-6), for which the EPSA is 174 A^2. Under `CC(=O)NCCCC[C@@H]1NC(=O)[C@H](Cc2c[nH]c3c(-c4cccc(NC(C)=O)c4)cccc23)NC(=O)[C@H]([C@@H](C)O)NC(=O)[C@H](CC(N)=O)NC(=O)[C@@H](NC(=O)CCOCCOCC[N+](C)(C)C)C(C)(C)SSC(C)(C)[C@@H](C(=O)N[C@@H](Cc2ccc(OCCN)cc2)C(=O)N[C@@H](Cc2ccc3ccccc3c2)C(=O)NC2(C(=O)N[C@@H](CCCCNC(C)=O)C(=O)N[C@@H](CC(N)=O)C(=O)N[C@@H](Cc3cccnc3)C(=O)N(C)CC(N)=O)CCOCC2)NC1=O` [compound 445, cPEG3aCO-Pen(3)-N-T-7(3NAcPh)W-K(Ac)-Pen(3)-AEF-2Nal-THP-K(Ac)-N-3Pya-Sar-CONH2] ({Me3N+(CH2)2O(CH2)2O(CH2)2CO}-[Pen]NT[Trp(7-(3-AcNH-Ph))]K(Ac)[Pen][AEF][2Nal][Thp]K(Ac)N[3Pal][Sar]-NH2; disulfide 1-6) stands 176 A^2.

For `CC(=O)NCCCC[C@@H]1NC(=O)[C@H](Cc2c[nH]c3c(C)cccc23)NC(=O)[C@H]([C@@H](C)O)NC(=O)[C@H](CC(N)=O)NC(=O)[C@@H](NC(=O)[C@@H](CCCC[N+](C)(C)C)NC(C)=O)C(C)(C)SSC(C)(C)[C@@H](C(=O)N[C@@H](Cc2ccc(OCCCCC[N+](C)(C)C)cc2)C(=O)N[C@@H](Cc2ccc3ccccc3c2)C(=O)NC2(C(=O)N[C@@H](CCC(=O)O)C(=O)N[C@@H](CC(N)=O)C(=O)N[C@@H](Cc3cccnc3)C(=O)N(C)CC(N)=O)CCOCC2)NC1=O` [compound 446, MeCO-k(Me)3-Pen(3)-N-T-7MeW-K(Ac)-Pen(3)-TMAPF-2Nal-THP-E-N-3Pya-Sar-CONH2] (Ac-[dLys(Me3)][Pen]NT[Trp(7-Me)]K(Ac)[Pen]Y(X3)[2Nal][Thp]EN[3Pal][Sar]-NH2; disulfide 2-7), the EPSA came out at 173 A^2.

As for `CC(=O)NCCCC[C@@H]1NC(=O)[C@H](Cc2c[nH]c3c(-c4cccc(NC(C)=O)c4)cccc23)NC(=O)[C@H]([C@@H](C)O)NC(=O)[C@H](CC(N)=O)NC(=O)[C@@H](NC(=O)[C@@H](CCCC[N+](C)(C)C)NC(C)=O)C(C)(C)SSC(C)(C)[C@@H](C(=O)N[C@@H](Cc2ccc(OCCN)cc2)C(=O)N[C@@H](Cc2ccc3ccccc3c2)C(=O)NC2(C(=O)N[C@@H](CCCCNC(C)=O)C(=O)N[C@@H](CC(N)=O)C(=O)N[C@@H](Cc3cccnc3)C(=O)N(C)CC(N)=O)CCOCC2)NC1=O` [compound 449] (Ac-[dLys(Me3)][Pen]NT[Trp(7-(3-AcNH-Ph))]K(Ac)[Pen][AEF][2Nal][Thp]K(Ac)N[3Pal][Sar]-NH2; disulfide 2-7), the EPSA was 176 A^2.
